Data: patent US20110146678A1, “PROCESS FOR IMPROVING CRYSTALLINITY” (priority 2008, published 2011)
Where a name gives a salt, the structure may show the parent alone.

How the values were obtained:
Format in all cases: physicochemical
[1] = Respirable fraction / FPF by Next Generation Impactor (general summary); details: particles of the present invention vs prior art
Source text: The particle size distribution of the aerosol formulations according to the invention may be measured by conventional techniques, for example by using a Next Generation Impactor (NGI) with pre-separator for example by cascade impaction or by the “Twin Impinger” analytical process. As used herein reference to the “Twin Impinger” assay means “Determination of the deposition of the emitted dose in pressurised inhalations using apparatus A” as defined in British Pharmacopoeia 1988, pages A204-207, Appendix XVII C. Such methods involve filling the pre-separator with HPLC mobile phase and the cups of the NGI cups were coated with 1% v/v silicone oil in hexane to eliminate particle bounce. […] The mass of drug deposited on each part of the NGI can then be determined by HPLC. The FPD determined represents the mass of drug collected on stages 3-8 of the NGI. The FPF emitted dose is also determined. The aerosolisation efficiency as determined by percentage fine particle fraction (% FPF) or respirable fraction is also assessed.
Such techniques enable the “respirable fraction” of the aerosol formulations to be calculated. As used herein reference to “respirable fraction” means the amount of active ingredient collected in the lower chamber in the NGI per actuation expressed as a percentage of the total amount of active ingredient delivered per actuation using the method described above. […]

[2] = pMDI formulation, particle fraction distribution on NGI stages; details: stage 5 cut-off 1.36 μm
Protocol: Both samples were produced in a similar manner to sample 2 of Example 2. Sample 1 was prepared from atomization of a 3% solution of fluticasone propionate in 20% dichloromethane in methanol (3 g in 100 ml) and Sample 5 was prepared from atomization of 3% solution in acetone (3 g in 100 ml). […] The FPF values were 11.80% and 13.80% on stage 5 for samples 5 and 1 respectively compared with 6.20% for micronized material.

[3] = Aerosolisation efficiency of binary DPI formulations (0.4% w/w FP in lactose), NGI via Rotahaler; details: optimal particles
Protocol: The aerosolization efficiency of samples 2, 3 and 4 of engineered FP were evaluated using binary formulations containing 0.4% w/w FP.
Each binary formulation contained 0.016 g FP and 3.984 g lactose (ML001, DMV-Fonterra, Vehgel, Netherlands) and was prepared by geometric mixing. Following this, the blend was subsequently prepared using a Turbula T2F (Willy A Bachofen A G, Basel, Switzerland) at 46 rpm for 45 minutes.
Following content uniformity testing, 12.5±1 mg of each blend was loaded into size 3 hydroxypropylmethyl cellulose capsules (HPMC, Shionogi Qualicaps S A, Basingstoke, UK). The capsules were stored at 44% RH for 24 h prior to in vitro performance testing.
Testing was performed using a Next Generation Impactor (NGI) with pre-separator, which was connected to a vacuum pump (GE Motors). Prior to testing, the pre-separator was filled with 15 ml of mobile phase and the cups of the NGI cups were coated with 1% v/v silicone oil in hexane to eliminate particle bounce.
For each experiment, four individual capsules of the same formulation were discharged into the NGI at 60 Lpm for 4 s via a Rotahaler (GSK, Ware, UK) DPI device. Additionally, blisters from a Flixotide Diskus (GSK, Ware, UK) were emptied and loaded into size 3 HPMS capsules and discharged into a NGI at 60 Lpm1 for 4 s via a Rotahaler. Following aerosolization, the NGI apparatus was dismantled and the inhaler, capsules and each part of the NGI was washed down into known volumes of HPLC mobile phase.
The mass of drug deposited on each part of the NGI was determined by HPLC. This protocol was repeated three times for each blend, following which, the mass median aerodynamic diameter (MMAD), geometric standard deviation (GSD), fine particle dose (FPD) and fine particle fraction of the emitted dose (FPFED) were determined. The FPD represented the mass of drug that was collected on stages 3-8 of the NGI.

| SMILES | increase in FPF compared to the prior art [1] | FPF on stage 5 of the NGI [2] [%] | FPF greater than micronized/milled [3] [%] | FPF greater than precipitated material [3] |
| --- | --- | --- | --- | --- |
| CC(Cc1ccc(O)cc1)NCC(O)c1cc(O)cc(O)c1 (stereo not drawn) [Fenoterol hydrobromide] | 30-50% |  |  |  |
| CCC(=O)O[C@]1(C(=O)SCF)[C@H](C)C[C@H]2[C@@H]3C[C@H](F)C4=CC(=O)C=C[C@]4(C)[C@@]3(F)[C@@H](O)C[C@@]21C [Sample 5, fluticasone propionate] |  | 11.80 |  |  |
| CCC(=O)O[C@]1(C(=O)SCF)[C@H](C)C[C@H]2[C@@H]3C[C@H](F)C4=CC(=O)C=C[C@]4(C)[C@@]3(F)[C@@H](O)C[C@@]21C [Sample 1, fluticasone propionate] |  | 13.80 |  |  |
| CCC(=O)O[C@]1(C(=O)SCF)[C@H](C)C[C@H]2[C@@H]3C[C@H](F)C4=CC(=O)C=C[C@]4(C)[C@@]3(F)[C@@H](O)C[C@@]21C [fluticasone propionate] | 50-60% |  | 54 | over 200% |
